Reference: PMC4958397, “Synthesis, antibacterial and antiproliferative potential of some new 1-pyridinecarbonyl-4-substituted thiosemicarbazide derivatives” (Medicinal Chemistry Research, 2016)
Values after ≈ are worked out from the molar mass of the structure shown.

Key:
[1] = test system: tested bacterial strains; test: Disk diffusion, summary over all tested strains; format: cell-based; conditions: 100 μg; range over strains
Description: Panel reference strains of bacteria from the American Type Culture Collection or Polish Collection of Microorganisms, including aerobic Gram-positive bacteria: Staphylococcus aureus ATCC 25923 and Staphylococcus epidermidis ATCC 12228, and aerobic Gram-negative bacteria: Escherichia coli ATCC 25922 and Pseudomonas aeruginosa ATCC 9027, as well as microaerobic Gram-positive bacteria: Lactobacillus spp., Lactobacillus acidophilus PCM 2105, Streptococcus mutans PCM 2502 and Streptococcus sanguinis PCM 2335, were used. Microbial suspensions with an optical density of 0.5 McFarland standard at 1.5 × 10^8 CFU/mL (CFU: colony forming unit) were prepared in sterile 0.9 % NaCl. […]
The preliminary antibacterial activity of the carbazide derivatives against human pathogenic Gram-positive, Gram-negative aerobic and microaerobic bacteria was evaluated by measuring the zones of inhibition in the disk diffusion method (Murray et al., [1995]). […] After 18 h of incubation at 37 °C (for aerobic strains) or 40 h at 35 °C (for microaerobic strains), zones of microbial growth produced around the tested substances were measured and recorded as the diameters of inhibition.

[2] = test system: Pseudomonas aeruginosa ATCC 9027; test: Broth microdilution MIC; format: cell-based; conditions: for MIC: Pseudomonas aeruginosa, ATCC9027, NA means inactive, read-out: Minimum inhibitory concentration (MIC), P. aeruginosa
Description: (§1) Panel reference strains of bacteria from the American Type Culture Collection or Polish Collection of Microorganisms, including aerobic Gram-positive bacteria: Staphylococcus aureus ATCC 25923 and Staphylococcus epidermidis ATCC 12228, and aerobic Gram-negative bacteria: Escherichia coli ATCC 25922 and Pseudomonas aeruginosa ATCC 9027, as well as microaerobic Gram-positive bacteria: Lactobacillus spp., Lactobacillus acidophilus PCM 2105, Streptococcus mutans PCM 2502 and Streptococcus sanguinis PCM 2335, were used. Microbial suspensions with an optical density of 0.5 McFarland standard at 1.5 × 10^8 CFU/mL (CFU: colony forming unit) were prepared in sterile 0.9 % NaCl. Mueller–Hinton (M–H) broth and M–H agar (Oxoid Ltd., England) for aerobic strains, and MRS Broth Lactobacillus, MRS Agar Lactobacillus (BioMaxima S.A., Poland), BHI Broth and BHI agar (BioMaxima S.A., Poland) for microaerobic strains were used in the microbial tests.
(§2) A broth microdilution method was used to evaluate the minimum inhibition concentration (MIC) according to the CLSI document (CLSI performance standards for antimicrobial susceptibility testing, 2008, Eighteenth International Supplement, CLSI document M7-MIC, Clinical Laboratory Standards Institute, Wayne) with some modifications. […] A serial doubling dilution of the compounds was prepared in 96-well plates (200 μL per well). A suitable medium (M-H Broth, MRS Broth Lactobacillus, BHI Broth) was used as a diluent. The final concentrations of derivatives were 1000–0.015 μg/mL. Finally, 2 μL of inoculum of the tested bacterial strain (1.5 × 10^8 CFU/mL) was added to each well. The tests were performed either at 36 °C for 18 h (aerobic strains) or at 40 h (microaerobic strains). After incubation, the panel was digitally analyzed at 600 nm using the microplate reader Bio Tech Synergy (USA) with a dedicated software system. The growth intensity in each well was compared with the negative and positive controls.

[3] = test system: Escherichia coli ATCC 25922; test: Broth microdilution MIC; format: cell-based; conditions: NA means inactive; for Minimum inhibitory concentration (MIC), E. coli: broth microdilution; for MIC: Escherichia coli, ATCC25922, broth microdilution, read-out: Minimum inhibitory concentration (MIC), E. coli
Description: as §1, §2

[4] = test system: Streptococcus mutans PCM 2502; test: Broth microdilution MIC; format: cell-based; conditions: for MIC: Streptococcus mutans, PCM2502, NA means inactive, read-out: Minimum inhibitory concentration (MIC), S. mutans
Description: as §1, §2

[5] = test system: Streptococcus sanguinis PCM 2335; test: Broth microdilution MIC; format: cell-based; conditions: for MIC: Streptococcus sanguinis, PCM2335, NA means inactive, read-out: Minimum inhibitory concentration (MIC), S. sanguinis
Description: as §1, §2

[6] = test system: Staphylococcus epidermidis ATCC 12228; test: Broth microdilution MIC; format: cell-based; conditions: for MIC: Staphylococcus epidermidis, ATCC12228, NA means inactive, read-out: Minimum inhibitory concentration (MIC), S. epidermidis
Description: as §1, §2

[7] = test system: Staphylococcus aureus ATCC 25923; test: Broth microdilution MIC; format: cell-based; conditions: for MIC: Staphylococcus aureus, ATCC25923, NA means inactive, read-out: Minimum inhibitory concentration (MIC), S. aureus
Description: as §1, §2

[8] = test system: Lactobacillus acidophilus PCM 210; test: Broth microdilution MIC; format: cell-based; conditions: for MIC: Lactobacillus acidophilus, PCM210, NA means inactive, read-out: Minimum inhibitory concentration (MIC), L. acidophilus
[9] = test system: Lactobacillus spp.; test: Disk diffusion, zone of bacterial growth inhibition; format: cell-based; conditions: 100 μg of compound; for zone of inhibition at 100 µg/disc: Lactobacillus, read-out: Zone of bacterial growth inhibition, L.spp.
Description: as §1
(§3) The preliminary antibacterial activity of the carbazide derivatives against human pathogenic Gram-positive, Gram-negative aerobic and microaerobic bacteria was evaluated by measuring the zones of inhibition in the disk diffusion method (Murray et al., [1995]). Each compound (100 µg) was placed on Petri plates with agar medium (previously inoculated with 0.5 McFarland standards with the tested bacterial strains). After 18 h of incubation at 37 °C (for aerobic strains) or 40 h at 35 °C (for microaerobic strains), zones of microbial growth produced around the tested substances were measured and recorded as the diameters of inhibition.

[10] = test system: Pseudomonas aeruginosa ATCC 9027; test: as above; format: cell-based; conditions: for zone of inhibition at 100 µg/disc: Pseudomonas aeruginosa, ATCC9027, 100 μg of compound, read-out: Zone of bacterial growth inhibition, P.a
Description: as §1, §3

[11] = test system: Escherichia coli ATCC 25922; test: as above; format: cell-based; conditions: for zone of inhibition at 100 µg/disc: Escherichia coli, ATCC25922, 100 μg of compound, read-out: Zone of bacterial growth inhibition, E.c
Description: as §1, §3

[12] = test system: Lactobacillus acidophilus PCM 210; test: as above; format: cell-based; conditions: for zone of inhibition at 100 µg/disc: Lactobacillus acidophilus, PCM210, 100 μg of compound, read-out: Zone of bacterial growth inhibition, L.a
Description: as §1, §3

[13] = test system: Streptococcus mutans PCM 2502; test: as above; format: cell-based; conditions: for zone of inhibition at 100 µg/disc: Streptococcus mutans, PCM2502, 100 μg of compound, read-out: Zone of bacterial growth inhibition, S.m
Description: as §1, §3

[14] = test system: Streptococcus sanguinis PCM 2335; test: as above; format: cell-based; conditions: for zone of inhibition at 100 µg/disc: Streptococcus sanguinis, PCM2335, 100 μg of compound, read-out: Zone of bacterial growth inhibition, S.s
Description: as §1, §3

[15] = test system: Staphylococcus epidermidis ATCC 12228; test: as above; format: cell-based; conditions: for zone of inhibition at 100 µg/disc: Staphylococcus epidermidis, ATCC12228, 100 μg of compound, read-out: Zone of bacterial growth inhibition, S.e
Description: as §1, §3

[16] = test system: Staphylococcus aureus ATCC 25923; test: as above; format: cell-based; conditions: for zone of inhibition at 100 µg/disc: Staphylococcus aureus, ATCC25923, 100 μg of compound, read-out: Zone of bacterial growth inhibition, S.a
Description: as §1, §3

[17] = test system: pathogenic microaerobic bacteria (causing dental caries); test: Broth microdilution MIC, summary in text; format: cell-based; conditions: range over compounds and strains; read-out: MIC against pathogenic microaerobic bacteria
Description: as §1, §2

[18] = test system: aerobic Gram-positive bacteria; test: Broth microdilution MIC, summary in text; format: cell-based; conditions: range over compounds and strains; read-out: MIC against aerobic Gram-positive bacteria
Description: as §1, §2

Compound | MIC [2] [µg/mL] | MIC [4] [µg/mL] | MIC [5] [µg/mL] | MIC [6] [µg/mL] | MIC [7] [µg/mL] | MIC [18] [µg/mL] | MIC [8] [µg/mL] | zone of inhibition at 100 µg/disc [9] [mm] | zone of inhibition at 100 µg/disc [10] [mm] | zone of inhibition at 100 µg/disc [11] [mm] | zone of inhibition at 100 µg/disc [12] [mm] | zone of inhibition at 100 µg/disc [13] [mm] | zone of inhibition at 100 µg/disc [14] [mm] | zone of inhibition at 100 µg/disc [15] [mm] | zone of inhibition at 100 µg/disc [16] [mm] | melting point [°C] | also measured
CO/N=C(\C(=O)N[C@@H]1C(=O)N2C(C(=O)O)=C(C[N+]3(C)CCCC3)CS[C@H]12)c1csc(N)n1.Cl.[Cl-] [Cefepime, cefepime dihydrochloride, reference compound] | – | – | – | – | – | – | – | – | – | – | – | – | – | – | – | – | zones of inhibition, all tested strains [1]: 29–38 mm; Minimum inhibitory concentration (MIC), P. aeruginosa ([2]; NA means inactive): 0.488 µg/mL; Minimum inhibitory concentration (MIC), E. coli [3]: 0.015 µg/mL; Minimum inhibitory concentration (MIC), S. mutans ([4]; NA means inactive): 0.122 µg/mL; Minimum inhibitory concentration (MIC), S. sanguinis ([5]; NA means inactive): 0.122 µg/mL; Minimum inhibitory concentration (MIC), S. epidermidis ([6]; NA means inactive): 0.976 µg/mL; Minimum inhibitory concentration (MIC), S. aureus ([7]; NA means inactive): 0.976 µg/mL; Minimum inhibitory concentration (MIC), L. acidophilus ([8]; NA means inactive): 3.9 µg/mL; Zone of bacterial growth inhibition, L.spp. [9]: 29 mm; Zone of bacterial growth inhibition, P.a ([10]; 100 μg of compound): 29 mm; Zone of bacterial growth inhibition, E.c ([11]; 100 μg of compound): 35 mm; Zone of bacterial growth inhibition, L.a ([12]; 100 μg of compound): 31 mm; Zone of bacterial growth inhibition, S.m ([13]; 100 μg of compound): 32 mm; Zone of bacterial growth inhibition, S.s ([14]; 100 μg of compound): 29 mm; Zone of bacterial growth inhibition, S.e ([15]; 100 μg of compound): 36 mm; Zone of bacterial growth inhibition, S.a ([16]; 100 μg of compound): 38 mm
O=C(NNC(=S)Nc1ccccc1F)c1ccccn1 [Compound 1, 4-(2-Fluorophenyl)-1-(pyridin-2-yl)carbonylthiosemicarbazide] | 500 | 250 | 500 | 15.6 | 31.2 | 15.6 to 500 | 125 (≈ 431 µM) | 24 | 12 | 22 | 12 | 10 | 10 | 26 | 18 | 182 to 184 | MIC [3]: 62 to 125 µg/mL; Minimum inhibitory concentration (MIC), E. coli [3]: 62.5 µg/mL; MIC [17]: 7.81 to 500 µg/mL
O=C(NNC(=S)NCCN1CCOCC1)c1ccccn1 [Compound 3, 4-(2-Morpholinoethyl)-1-(pyridin-2-yl)carbonylthiosemicarbazide] | – | – | – | – | – | – | – | 0 | 0 | 0 | 0 | 0 | 0 | 7 | 0 | 196 to 198 | –
CSc1ccc(NC(=S)NNC(=O)c2ccccn2)cc1 [Compound 5, 4-(4-Methylthiophenyl)-1-(pyridin-2-yl)carbonylthiosemicarbazide] | > 1000 | 31.2 | 31.2 | 125 | 250 | 15.6 to 500 | 500 (≈ 1570 µM) | 11 | 0 | 11 | 19 | 0 | 15 | 10 | 10 | 184 to 186 | MIC [17]: 7.81 to 500 µg/mL
CSc1ccc(NC(=S)NNC(=O)c2ccncc2)cc1 [Compound 8, 4-(4-Methylthiophenyl)-1-(pyridin-4-yl)carbonylthiosemicarbazide] | – | – | – | – | – | – | – | 0 | 0 | 0 | 0 | 0 | 0 | 0 | 0 | 197 to 198 | –
O=C(NNC(=S)Nc1ccccc1F)c1ccncc1 [Compound 9, 4-(2-Fluorophenyl)-1-(pyridin-4-yl)carbonylthiosemicarbazide] | – | – | – | – | – | – | – | 0 | 0 | 0 | 0 | 0 | 0 | 0 | 0 | 202 to 204 | –
O=C(NNC(=S)Nc1ccc(Cl)cc1Cl)c1ccncc1 [Compound 10, 4-(2,4-Dichlorophenyl)-1-(pyridin-4-yl)carbonylthiosemicarbazide] | 1000 | 250 | 1000 | 250 | 125 | 15.6 to 500 | 1000 (≈ 2930 µM) | 0 | 0 | 7 | 0 | 28 | 20 | 13 | 16 | – | MIC [3]: 1000 µg/mL
